Results: patent US11180504B2 (ORCHID PHARMA LTD., priority 2016, dated 2021)
≈ marks a conversion by molar mass, not a printed value. Read-outs that look alike come from different tables or passages of the source.

Assays:
[1] = system: methicillin-sensitive Staphylococcus aureus; assay: MIC by broth micro-dilution (CLSI), methicillin-sensitive S. aureus; format: cell-based; conditions: MSSA S. aureus ATCC29213
[2] = system: carbapenem sensitive Escherichia coli; assay: MIC by broth micro-dilution (CLSI), carbapenem sensitive E. coli; format: cell-based
[3] = system: carbapenemase producing K. pneumoniae; assay: MIC by broth micro-dilution (CLSI), carbapenemase producing K. pneumoniae; format: cell-based, Klebsiella pneumoniae
[4] = system: carbapenem sensitive Pseudomonas aeruginosa; assay: MIC by broth micro-dilution (CLSI), carbapenem sensitive P. aeruginosa; format: cell-based
[5] = Staphylococcus aureus, ATCC 29213 / MSSA, read-out: MIC
[6] = Escherichia coli, ATCC25922, ESBL −ve E. coli ATCC25922, read-out: MIC
[7] = Klebsiella pneumoniae, ATCCBAA1705, KPC-2 K. pneumoniae ATCC BAA-1705, read-out: MIC
[8] = Pseudomonas aeruginosa, ATCC27853, Meropenem susceptible P. aeruginosa ATCC27853, read-out: MIC

Row | SMILES | MIC [1, 5] [µg/mL] | MIC [2, 6] [µg/mL] | MIC [3, 7] [µg/mL] | MIC [4, 8] [µg/mL] | MIC [1] [µg/mL] | MIC ([2]; ESBL −ve E. coli ATCC25922) [µg/mL] | MIC ([3]; KPC-2 K. pneumoniae ATCC BAA-1705) [µg/mL] | MIC ([4]; Meropenem susceptible P. aeruginosa ATCC27853) [µg/mL]
1 | COCCNCC(=O)N[C@H](C)[C@H]1C(=O)N2C(C(=O)O)=C(S[C@@H]3CN[C@H](C(=O)N(C)C)C3)[C@H](C)[C@H]12 [Example 518, (4R,5S,6R)-3-((3S,5S)-5-(dimethylcarbamoyl)pyrrolidin-3-ylthio)-6-((R)-1-(2-(2-methoxyethylamino)acetamido)ethyl)-4-methyl-7-oxo-1-azabicyclo[3.2.0]hept-2-ene-2-carboxylic acid] | 8 (≈ 16.1 µM) | 1 (≈ 2.01 µM) | 4 (≈ 8.04 µM) | 128 (≈ 257 µM) | – | – | – | –
2 | C[C@@H](NC(=O)Cn1nnnc1N(C)C)[C@H]1C(=O)N2C(C(=O)O)=C(S[C@@H]3CN[C@H](C(=O)N4CC[C@@H](N)C4)C3)[C@H](C)[C@H]12 [Example 384, (4R,5S,6R)-3-((3S,5S)-5-((R)-3-aminopyrrolidine-1-carbonyl)pyrrolidin-3-ylthio)-6-((R)-1-(2-(5-(dimethylamino)-1H-tetrazol-1-yl)acetamido)ethyl)-4-methyl-7-oxo-1-azabicyclo[3.2.0]hept-2-ene-2-carboxylic acid] | 4 (≈ 6.94 µM) | 0.5 (≈ 0.867 µM) | 4 (≈ 6.94 µM) | 64 (≈ 111 µM) | – | – | – | –
3 | C[C@@H](NC(=O)Cn1cnnn1)[C@H]1C(=O)N2C(C(=O)O)=C(S[C@@H]3CN[C@H](C(=O)N4CC[C@@H](O)C4)C3)[C@H](C)[C@H]12 [Example 393, (4R,5S,6R)-6-((R)-1-(2-(1H-tetrazol-1-yl)acetamido)ethyl)-3-((3S,5S)-5-((R)-3-hydroxypyrrolidine-1-carbonyl)pyrrolidin-3-ylthio)-4-methyl-7-oxo-1-azabicyclo[3.2.0]hept-2-ene-2-carboxylic acid] | 4 (≈ 7.48 µM) | 0.125 (≈ 0.234 µM) | 1 (≈ 1.87 µM) | 8 (≈ 15 µM) | – | – | – | –
4 | C[C@@H](NC(=O)Cc1nnc(C(F)(F)F)o1)[C@H]1C(=O)N2C(C(=O)O)=C(S[C@@H]3CN[C@H](C(=O)N4CC[C@@H](N)C4)C3)[C@H](C)[C@H]12 [Example 394, (4R,5S,6R)-3-((3S,5S)-5-((R)-3-aminopyrrolidine-1-carbonyl)pyrrolidin-3-ylthio)-4-methyl-7-oxo-6-((R)-1-(2-(5-(trifluoromethyl)-1,3,4-oxadiazol-2-yl)acetamido)ethyl)-1-azabicyclo[3.2.0]hept-2-ene-2-carboxylic acid] | 8 (≈ 13.3 µM) | 2 (≈ 3.32 µM) | 32 (≈ 53.2 µM) | 128 (≈ 213 µM) | – | – | – | –
5 | Cc1nnnn1CC(=O)N[C@H](C)[C@H]1C(=O)N2C(C(=O)O)=C(S[C@@H]3CN[C@H](C(=O)N4CC[C@@H](N)C4)C3)[C@H](C)[C@H]12 [Example 331, (4R,5S,6R)-3-((3S,5S)-5-((R)-3-aminopyrrolidine-1-carbonyl)pyrrolidin-3-ylthio)-4-methyl-6-((R) - 1-(2-(5-methyl-1H-tetrazal-1-yl)acetamido)ethyl)-7-oxo-1-azabicyclo[3.2.0]hept-2-ene-2-carboxylic acid] | 4 (≈ 7.3 µM) | 0.25 (≈ 0.457 µM) | 4 (≈ 7.3 µM) | 8 (≈ 14.6 µM) | – | – | – | –
6 | C[C@@H](NC(=O)Cn1cnnn1)[C@H]1C(=O)N2C(C(=O)O)=C(S[C@@H]3CN[C@H](C(=O)N4CCC5CN(CCN)CCC54)C3)[C@H](C)[C@H]12 (stereo partly drawn) [Example 489, (4R,5S,6R)-6-((R)-1-(2-(1H-tetrazol-1-yl)acetamido)ethyl)-3-((3S,5S)-5-(5-(2-aminoethyl)octahydro-1H-pyrrolo[3,2-c]pyridine-1-carbonyl)pyrrolidin-3-ylthio)-4-methyl-7-oxo-1-azabicyclo[3.2.0]hept-2-ene-2-carboxylic acid] | 4 (≈ 6.49 µM) | 0.5 (≈ 0.811 µM) | 1 (≈ 1.62 µM) | 16 (≈ 25.9 µM) | – | – | – | –
7 | C[C@@H](NC(=O)Cn1cnnn1)[C@H]1C(=O)N2C(C(=O)O)=C(S[C@@H]3CN[C@H](C(=O)N4C[C@H](N)C[C@H]4CNS(N)(=O)=O)C3)[C@H](C)[C@H]12 [Example 455, (4R,5S,6R)-6-((R)-1-(2-(1H-tetrazol-1-yl)acetamido)ethyl)-3-((3S,5S)-5-((2S,4R)-4-amino-2-((sulfamoylamino)methyl)pyrrolidine-1-carbonyl)pyrrolidin-3-ylthio)-4-methyl-7-oxo-1-azabicyclo[3.2.0]hept-2-ene-2-carboxylic acid] | 4 (≈ 6.23 µM) | 0.5 (≈ 0.779 µM) | 2 (≈ 3.12 µM) | 4 (≈ 6.23 µM) | – | – | – | –
8 | C[C@@H](NC(=O)Cn1cnnn1)[C@H]1C(=O)N2C(C(=O)O)=C(S[C@@H]3CN[C@H](C(=O)N4CC(F)(CN)C4)C3)[C@H](C)[C@H]12 [Example 344, (4R,5S,6R)-6-((R) - 1-(2-(1H-tetrazol-1-yl)acetamido)ethyl)-3-((3S,5S)-5-(3-(aminomethyl)-3-fluoroazetidine-1-carbonyl)pyrrolidin-3-ylthio)-4-methyl-7-oxo-1-azabicyclo[3.2.0]hept-2-ene-2-carboxylic acid] | 16 (≈ 29 µM) | 1 (≈ 1.81 µM) | 16 (≈ 29 µM) | 16 (≈ 29 µM) | – | – | – | –
9 | C[C@@H](NC(=O)[C@@H]1CS(=O)(=O)CN1)[C@H]1C(=O)N2C(C(=O)O)=C(S[C@@H]3CN[C@H](CNS(N)(=O)=O)C3)[C@H](C)[C@H]12 [Example 281] | 32 (≈ 56.5 µM) | 8 (≈ 14.1 µM) | 16 (≈ 28.2 µM) | 64 (≈ 113 µM) | – | – | – | –
10 | C[C@@H](NC(=O)Cn1cnnn1)[C@H]1C(=O)N2C(C(=O)O)=C(S[C@@H]3CN[C@H](C(=O)N4CCN(CCN)CC4)C3)[C@H](C)[C@H]12 [Example 364, (4R,5S,6R)-6-((R)-1-(2-(1H-tetrazol-1-yl)acetamido)ethyl)-3-((3S,5S)-5-(4-(2-aminoethyl)piperazine-1-carbonyl)pyrrolidin-3-ylthio)-4-methyl-7-oxo-1-azabicyclo[3.2.0]hept-2-ene-2-carboxylic acid] | 4 (≈ 6.94 µM) | 0.25 (≈ 0.434 µM) | 2 (≈ 3.47 µM) | 1 (≈ 1.73 µM) | – | – | – | –
11 | C[C@@H](NC(=O)Cn1cnnn1)[C@H]1C(=O)N2C(C(=O)O)=C(S[C@@H]3CN[C@H](C(=O)N4CC(O)C(CN)C4)C3)[C@H](C)[C@H]12 (single isomer, unassigned) [Example 511] | – | – | – | – | 4 (≈ 7.1 µM) | 0.25 (≈ 0.444 µM) | 2 (≈ 3.55 µM) | 1 (≈ 1.77 µM)

Further compounds by falling MIC [1, 5], results first:

Row | MIC [1, 5] [µg/mL] | MIC [2, 6] [µg/mL] | MIC [3, 7] [µg/mL] | MIC [4, 8] [µg/mL] | MIC [1] [µg/mL] | MIC ([2]; ESBL −ve E. coli ATCC25922) [µg/mL] | MIC ([3]; KPC-2 K. pneumoniae ATCC BAA-1705) [µg/mL] | MIC ([4]; Meropenem susceptible P. aeruginosa ATCC27853) [µg/mL] | SMILES
12 | 2 (≈ 3.4 µM) | 0.5 (≈ 0.851 µM) | 2 (≈ 3.4 µM) | 64 (≈ 109 µM) | – | – | – | – | C[C@@H](NC(=O)Cn1cnnn1)[C@H]1C(=O)N2C(C(=O)O)=C(S[C@@H]3CN[C@H](C(=O)N4CCCC45CCNCC5)C3)[C@H](C)[C@H]12 [Example 477, (4R,5S,6R)-3-((3S,5S)-5-(1,8-diazaspiro[4.5]decane-1-carbonyl)pyrrolidin-3-ylthio)-6-((R)-1-(2-(1H-tetrazol-1-yl)acetamido)ethyl)-4-methyl-7-oxo-1-azabicyclo[3.2.0]hept-2-ene-2-carboxylic acid]
13 | 2 (≈ 3.71 µM) | 1 (≈ 1.86 µM) | 8 (≈ 14.9 µM) | > 128 | – | – | – | – | C[C@@H](NC(=O)CSc1nnnn1C)[C@H]1C(=O)N2C(C(=O)O)=C(S[C@@H]3CN[C@H](C(=O)N(C)C)C3)[C@H](C)[C@H]12 [Example 321, (4R,5S,6R)-3-((3S,5S)-5-(dimethylcirbamoyl)pyrrolidin-3-ylthio)-4-methyl-6-((R) - 1-(2-(1-methyl-1H-tetrazol-5-ylthio)acetamido)ethyl)-7-oxo-1-azabicyclo[3.2.0]hept-2-ene-2-carboxylic acid]
14 | 2 (≈ 3.65 µM) | 0.25 (≈ 0.457 µM) | 8 (≈ 14.6 µM) | 16 (≈ 29.2 µM) | – | – | – | – | C[C@@H](NC(=O)CCn1cnnn1)[C@H]1C(=O)N2C(C(=O)O)=C(S[C@@H]3CN[C@H](C(=O)N4CC[C@@H](N)C4)C3)[C@H](C)[C@H]12 [Example 369, (4R,5S,6R)-6-((R)-1-(3-(1H-tetrazol-1-yl)propanamido)ethyl)-3-((3S,5S)-5-((R)-3-aminopyrrolidine-1-carbonyl)pyrrolidin-3-ylthio)-4-methy-7-oxo-1-azabicyclo[3.2.0]hept-2-ene-2-carboxylic acid]
15 | 2 (≈ 3.4 µM) | 0.25 (≈ 0.425 µM) | 1 (≈ 1.7 µM) | 1 (≈ 1.7 µM) | – | – | – | – | C[C@@H](NC(=O)Cn1cnnn1)[C@H]1C(=O)N2C(C(=O)O)=C(S[C@@H]3CN[C@H](C(=O)N4CCC5(CCNC5)CC4)C3)[C@H](C)[C@H]12 [Example 435, (4R,5S,6R)-6-((R)-1-(2-(1H-tetrazol-1-yl)acetamido)ethyl)-3-((3S,5S)-5-(2,8-diazaspiro[4.5]decane-8-carbonyl)pyrrolidin-3-ylthio)-4-methyl-7-oxo-1-azabicyclo[3.2.0]hept-2-ene-2-carboxylic acid]
16 | 1 (≈ 1.89 µM) | 4 (≈ 7.55 µM) | 16 (≈ 30.2 µM) | 128 (≈ 242 µM) | – | – | – | – | C[C@@H](NC(=O)C(F)F)[C@H]1C(=O)N2C(C(=O)O)=C(S[C@@H]3CN[C@H](CNC(=O)[C@H]4CC[C@@H](N)C4)C3)[C@H](C)[C@H]12 [Example 258]
17 | 1 (≈ 1.58 µM) | 0.125 (≈ 0.198 µM) | 0.5 (≈ 0.79 µM) | 1 (≈ 1.58 µM) | – | – | – | – | C[C@@H](NC(=O)Cn1cnnn1)[C@H]1C(=O)N2C(C(=O)O)=C(S[C@@H]3CN[C@H](C(=O)N4CC[C@@H](NC(=O)CNC(=N)N)C4)C3)[C@H](C)[C@H]12 [Example 567, (4R,5S,6R)-6-((R)-1-(2-(1H-tetrazol-1-yl)acetamido)ethyl)-3-((3S,5S)-5-((R)-3-(2-guanidinoacetamido)pyrrolidine-1-carbonyl)pyrrolidin-3-ylthio)-4-methyl-7-oxo-1-azabicyclo[3.2.0]hept-2-ene-2-carboxylic acid]
